{"source": "patent US9611222B2", "about": "“Pyridine compounds and the uses thereof” (Purdue Pharma L.P., priority 2010, dated 2017)", "target": "human Nav1.7 (Homo sapiens (Human), UniProt Q15858)", "sequence (Q15858 with tags, fused parts or gaps limits assumed)": "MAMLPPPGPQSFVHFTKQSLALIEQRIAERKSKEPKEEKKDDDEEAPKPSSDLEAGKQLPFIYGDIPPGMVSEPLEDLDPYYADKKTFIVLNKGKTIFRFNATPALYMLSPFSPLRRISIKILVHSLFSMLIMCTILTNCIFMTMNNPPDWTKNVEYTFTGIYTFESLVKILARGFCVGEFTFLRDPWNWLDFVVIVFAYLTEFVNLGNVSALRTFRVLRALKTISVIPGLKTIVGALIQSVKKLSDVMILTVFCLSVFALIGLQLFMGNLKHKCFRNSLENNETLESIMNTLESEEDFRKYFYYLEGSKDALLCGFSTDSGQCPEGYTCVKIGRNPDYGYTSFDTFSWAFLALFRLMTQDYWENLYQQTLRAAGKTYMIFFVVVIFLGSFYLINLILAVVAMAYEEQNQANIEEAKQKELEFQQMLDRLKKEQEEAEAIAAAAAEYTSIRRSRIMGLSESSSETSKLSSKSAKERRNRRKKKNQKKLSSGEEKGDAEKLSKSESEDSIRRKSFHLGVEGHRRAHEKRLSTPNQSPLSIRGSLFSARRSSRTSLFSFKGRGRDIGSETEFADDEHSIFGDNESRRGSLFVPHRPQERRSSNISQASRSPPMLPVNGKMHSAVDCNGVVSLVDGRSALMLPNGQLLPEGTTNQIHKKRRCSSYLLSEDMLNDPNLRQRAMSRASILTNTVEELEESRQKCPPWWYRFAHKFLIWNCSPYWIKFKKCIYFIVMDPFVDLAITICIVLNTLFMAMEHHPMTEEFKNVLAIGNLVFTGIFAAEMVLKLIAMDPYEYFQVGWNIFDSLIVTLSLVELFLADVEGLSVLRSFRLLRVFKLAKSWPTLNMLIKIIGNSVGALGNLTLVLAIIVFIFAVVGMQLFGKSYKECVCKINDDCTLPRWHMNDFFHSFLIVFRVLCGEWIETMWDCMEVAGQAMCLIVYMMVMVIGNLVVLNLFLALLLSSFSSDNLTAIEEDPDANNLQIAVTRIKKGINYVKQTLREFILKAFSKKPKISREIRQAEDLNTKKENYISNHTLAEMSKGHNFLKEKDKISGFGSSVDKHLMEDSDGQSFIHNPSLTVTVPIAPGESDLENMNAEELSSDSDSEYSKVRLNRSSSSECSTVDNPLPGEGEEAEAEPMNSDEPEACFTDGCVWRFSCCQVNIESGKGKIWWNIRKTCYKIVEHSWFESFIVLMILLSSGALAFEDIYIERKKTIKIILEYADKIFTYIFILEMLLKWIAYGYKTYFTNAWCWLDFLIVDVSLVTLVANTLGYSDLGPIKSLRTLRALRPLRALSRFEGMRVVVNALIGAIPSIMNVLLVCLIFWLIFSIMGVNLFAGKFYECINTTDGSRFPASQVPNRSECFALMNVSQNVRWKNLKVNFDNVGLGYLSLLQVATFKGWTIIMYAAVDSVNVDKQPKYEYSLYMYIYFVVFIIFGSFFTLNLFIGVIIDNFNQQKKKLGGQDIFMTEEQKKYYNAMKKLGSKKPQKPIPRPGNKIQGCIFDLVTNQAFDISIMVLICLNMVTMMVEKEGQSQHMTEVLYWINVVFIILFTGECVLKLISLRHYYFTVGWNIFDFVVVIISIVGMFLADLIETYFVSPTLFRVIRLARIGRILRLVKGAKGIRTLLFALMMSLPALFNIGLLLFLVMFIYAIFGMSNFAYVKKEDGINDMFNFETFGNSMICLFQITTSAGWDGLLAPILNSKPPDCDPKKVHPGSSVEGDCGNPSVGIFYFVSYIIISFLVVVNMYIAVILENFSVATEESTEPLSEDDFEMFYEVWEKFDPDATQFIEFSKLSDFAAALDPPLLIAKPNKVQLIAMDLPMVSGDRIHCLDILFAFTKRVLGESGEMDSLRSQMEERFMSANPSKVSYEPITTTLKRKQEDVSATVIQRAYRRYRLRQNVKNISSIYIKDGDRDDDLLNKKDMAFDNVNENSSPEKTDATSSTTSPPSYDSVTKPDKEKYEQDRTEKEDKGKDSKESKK", "assay": "FLIPR or FLIPR TETRA sodium dye assay with KCl and test article pre-incubation", "type": "cell-based", "settings": "sodium channel blocking activity, recombinant HEK293 cells, CoroNa Green dye, veratridine + scorpion venom; read-out: Nav1.7 IC50 (μM) ± SEM"}
{"smiles": "Cc1cc(-c2nnn(CC(N)=O)n2)cc(-c2ccc(Oc3ccc(F)cc3)cc2)n1", "note": "[compound 108, 2-(5-(2-(4-(4-fluorophenoxy)phenyl)-6-methylpyridin-4-yl)-2H-tetrazol-2-yl) acetamide]", "values": [{"measurement": "IC50", "value": "0.13 ± 0.01", "unit": "µM"}]}
